Activity calls are given as the source filed them. The calls are words filed in the database; no cut-off is given here.
How the values were obtained:
[1] = target: PCSK9/LDLR (Homo sapiens) (UniProt Q8NBP7+P01130); experiment: Inhibition of PCSK9 (unknown origin) interaction with LDLR (unknown origin) by ELISA; type: protein assay
[2] = tested on: HepG2; experiment: Down regulation of PCSK9 mRNA expression in human HepG2 cells at 50 uM incubated for 24 hrs by SYBR green dye-based qRT-PCR analysis; type: functional, cell-based
[3] = Down regulation of PCSK9 mRNA expression in human HepG2 cells incubated for 24 hrs by SYBR green dye-based qRT-PCR analysis; type: functional, cell-based; details: HepG2, 24 h
[4] = tested on: HepG2; experiment: Up regulation of LDLR protein expression in human HepG2 cells at 10 to 50 uM incubated for 24 hrs by Western blotting analysis; type: functional, cell-based; details: dose 10-50 µM
[5] = tested on: HepG2; experiment: Down regulation of PCSK9 protein expression in human HepG2 cells at 10 to 50 uM incubated for 24 hrs by Western blotting analysis; type: functional, cell-based; details: dose 10-50 µM

PCSK9/LDLR (Homo sapiens), sequence (P01130 22-860 partner limits assumed): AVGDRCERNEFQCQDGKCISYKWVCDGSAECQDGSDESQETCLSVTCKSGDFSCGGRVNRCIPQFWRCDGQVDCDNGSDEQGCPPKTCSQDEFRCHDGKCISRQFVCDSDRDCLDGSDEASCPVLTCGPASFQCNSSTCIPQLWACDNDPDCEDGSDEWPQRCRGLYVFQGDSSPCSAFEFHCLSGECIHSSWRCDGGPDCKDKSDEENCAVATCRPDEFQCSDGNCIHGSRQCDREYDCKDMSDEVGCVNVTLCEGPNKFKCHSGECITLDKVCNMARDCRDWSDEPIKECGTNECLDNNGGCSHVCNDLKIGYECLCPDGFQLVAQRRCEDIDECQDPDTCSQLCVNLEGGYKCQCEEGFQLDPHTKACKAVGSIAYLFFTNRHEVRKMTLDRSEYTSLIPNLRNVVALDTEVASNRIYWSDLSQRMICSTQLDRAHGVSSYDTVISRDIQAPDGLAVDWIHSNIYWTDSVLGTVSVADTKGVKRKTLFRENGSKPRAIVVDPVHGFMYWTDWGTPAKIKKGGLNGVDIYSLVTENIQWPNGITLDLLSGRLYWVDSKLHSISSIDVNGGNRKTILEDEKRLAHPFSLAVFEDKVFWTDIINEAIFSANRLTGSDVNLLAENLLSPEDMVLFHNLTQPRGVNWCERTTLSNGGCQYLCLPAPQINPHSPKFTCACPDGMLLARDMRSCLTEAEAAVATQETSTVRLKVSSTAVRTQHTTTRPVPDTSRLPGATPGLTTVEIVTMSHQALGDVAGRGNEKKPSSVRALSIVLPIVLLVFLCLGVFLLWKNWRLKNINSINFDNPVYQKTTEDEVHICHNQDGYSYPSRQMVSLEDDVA
PCSK9/LDLR (Homo sapiens), sequence (Q8NBP7 31-152 limits assumed): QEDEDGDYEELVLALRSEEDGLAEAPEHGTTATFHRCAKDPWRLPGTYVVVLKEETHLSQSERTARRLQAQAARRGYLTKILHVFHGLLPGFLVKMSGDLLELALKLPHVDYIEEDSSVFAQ
PCSK9/LDLR (Homo sapiens), sequence (Q8NBP7 153-692 limits assumed): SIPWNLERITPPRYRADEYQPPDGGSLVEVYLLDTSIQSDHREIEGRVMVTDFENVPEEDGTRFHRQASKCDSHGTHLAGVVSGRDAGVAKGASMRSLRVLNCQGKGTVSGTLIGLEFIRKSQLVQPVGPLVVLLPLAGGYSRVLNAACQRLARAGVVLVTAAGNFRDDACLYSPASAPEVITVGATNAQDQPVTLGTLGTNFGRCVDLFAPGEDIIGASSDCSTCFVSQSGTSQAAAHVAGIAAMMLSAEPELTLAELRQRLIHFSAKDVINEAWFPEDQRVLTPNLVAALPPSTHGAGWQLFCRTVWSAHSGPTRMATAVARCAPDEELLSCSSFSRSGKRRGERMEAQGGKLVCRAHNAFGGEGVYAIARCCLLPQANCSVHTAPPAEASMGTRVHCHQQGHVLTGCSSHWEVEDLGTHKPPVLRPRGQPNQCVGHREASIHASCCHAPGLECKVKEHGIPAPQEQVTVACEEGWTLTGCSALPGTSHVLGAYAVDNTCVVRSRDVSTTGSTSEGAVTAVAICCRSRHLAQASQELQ

| Compound | inhibition [1] | also measured |
| --- | --- | --- |
| CO[C@]12C[C@@]3(C)[C@H](OC(C)=O)C(=O)C=C(C)[C@@H]3CC1=C(C)C(=O)O2 | inactive | Activity [2]: Active; IC50 [3]: 25.2 µM |
| COc1c(O)cc2c(c1O)C(=O)C[C@@H](c1ccc(O)cc1)O2 | inactive | – |
| CO[C@@H]1CC(=O)[C@H](C)[C@H]2C/C(=C(\C)C(=O)O)C[C@@]21C | inactive | Activity [2]: Active; IC50 [3]: 24.4 µM; Activity [4]: Active; Activity [5]: Active |
| CC1=C2C[C@@H]3[C@@H](C)C(=O)C=C[C@@]3(C)C[C@@]2(O)OC1=O | inactive | Activity [2]: Active; IC50 [3]: 27.8 µM; Activity [4]: Active; Activity [5]: Active |
| COC(=O)[C@H](C)[C@H]1C[C@]2(O)C(C)=CC(=O)[C@H](OC(C)=O)[C@]2(C)CC1=O | inactive | – |
| CC(=O)O[C@H]1C[C@@H](O)[C@@]2(C)C[C@H](O)/C(=C(/C)C(=O)O)C[C@@H]2[C@H]1C | inactive | – |
| CC(=O)O[C@H]1C[C@@H](O)[C@@]2(C)C=C3OC(=O)C(C)=C3C[C@@H]2[C@H]1C | inactive | – |
| COc1c(O)cc2oc(-c3ccc(O)cc3)cc(=O)c2c1O | inactive | – |
| COc1ccc2cc3[n+](cc2c1OC)CCc1cc2c(cc1-3)OCO2 [BERBERINE CHLORIDE] | – | IC50 [3]: 13.8 µM |
| CO[C@@]12C[C@]3(C)[C@H](O)C[C@H](OC(C)=O)[C@H](C)[C@H]3CC1=C(C)C(=O)O2 | inactive | – |
| CC1=C2C[C@@H]3[C@@H](C)[C@@H](O)C[C@@H](O)[C@@]3(C)C=C2OC1=O | inactive | – |
| CC(=O)O[C@H]1C[C@@H](O)[C@@]2(C)C[C@@]3(O)OC(=O)C(C)=C3C[C@@H]2[C@H]1C | inactive | – |
| CC1=CC(=O)[C@H](O)[C@@]2(C)C=C3OC(=O)C(C)=C3C[C@H]12 | inactive | – |
| CC(=O)O[C@H]1C[C@H](O)[C@]2(C)C[C@@H]3OC(=O)C(C)=C3C[C@H]2[C@@H]1C | inactive | – |
| CC(=O)O[C@@H]1C(=O)C=C(C)[C@]2(O)C/C(=C(\C)C(=O)O)C(O)=C[C@]12C | inactive | – |
| CC(=O)O[C@H]1C(=O)C=C(C)[C@H]2CC3=C(C)C(=O)OC3=C[C@@]21C | inactive | – |
| CO[C@]12C[C@@]3(C)[C@H](CC1=C(C)C(=O)O2)C(C)=CC(=O)[C@@H]3OC(C)=O | inactive | – |
| CC(=O)O[C@@H]1C(=O)C=C(C)[C@@H]2CC3=C(C)C(=O)O[C@@H]3C[C@@]12C | inactive | – |
| CC(=O)O[C@H]1C(=O)C=C(C)[C@H]2CC3=C(C)C(=O)O[C@]3(O)C[C@@]21C | inactive | – |
| CC(=O)O[C@H]1C(=O)C=C(C)[C@H]2CC3=C(C)C(=O)O[C@@H]3C[C@@]21C | inactive | – |
